Patent publication US5958981A, “γ-diketone compounds with inhibitory activity against platelet aggregation” (Meiji Seika Kabushiki Kaisha, priority 1994, dated 1999)
Structures can show the parent of a compound that is named as a salt.

Tested on: human PRP (platelet rich plasma), platelet aggregation
Assay: Inhibitory activity against ADP-induced platelet aggregation in human PRP (platelet rich plasma)
Format: cell-based
Conditions: aggregation inducer ADP final concentration 5 μM, preincubated 2 min
Protocol: Pharmacological Test: Inhibitory activity against platelet aggregation
The inhibitory activity of the compound according to the present invention against platelet aggregation was examined with human PRP (platelet rich plasma).
Nine volumes of a blood sample was taken out of the vein of a normal human with a syringe in which one volume of a 3.8% sodium citrate solution was charged. The blood sample was centrifuged at 170×g at room temperature for 10 min. The supernatant thus obtained was isolated as PRP. The residual blood sample that PRP had been taken out was centrifuged at 2,700×g for 15 minutes. The supernatant was then taken as platelet poor plasma (PPP).
A platelet aggregation test was conducted with an aggligometer (PAM-8C, manufactured by MEBANICKS Co., Ltd.). Compounds under test were dissolved in a 50% DMSO saline, a 50% methanol saline, or physiological saline. The compound under test and PRP were preincubated for 2 min. An aggregation inducer ADP (CHRONO-PAR REAGENTS 384 ADP, CHRONO-LOG Corp.) was used in the form of a dilution with saline so that the final concentration is 5 μM.
The anti-platelet aggregation activity was determined as an inhibition rate to platelet aggregation effect of ADP in the absence of a compound under test as follows. [formula]

SMILES: N=C(N)c1ccc(C(=O)CCC(=O)c2ccc(OCC(=O)O)c(OCC(=O)O)c2)cc1 [Example 3, [[4-[4-(4-Amidinophenyl)-1,4-dioxobutan-1-yl]-1,2-phenylene]dioxy]diacetic acid trifluoroacetate]
- IC50: 17 nM

SMILES: CCCCOC(=O)COc1ccc(C(=O)CCC(=O)c2ccc(C(=N)N)cc2)cc1OCC(=O)OCCCC [Example 4, Di-n-butyl [[4-[4-(4-amidinophenyl)-1,4-dioxobutan-1-yl]-1,2-phenylene]dioxy]diacetate trifluoroacetate]
- IC50: 23 nM

SMILES: O=C(O)COc1ccc(C(=O)CCC(=O)c2cc3c(s2)CCNC3)cc1OCC(=O)O [Example 1, [[4-[1,4-Dioxo-4-(4,5,6,7-tetrahydrothieno[3,2-c]pyridin-2-yl)butan-1-yl]-1,2-phenylene]dioxy]diacetic acid trifluoroacetate]
- IC50: 130 nM

SMILES: CCCCOC(=O)COc1ccc(C(=O)CCC(=O)c2ccc(C(=N)N)cc2)cc1 [Example 5, n-Butyl 4-[4-(4-amidinophenyl)-1,4-dioxobutan-1-yl]phenoxyacetate hydroiodide]
- IC50: 43 nM

SMILES: CCCCOC(=O)COc1ccc(C(=O)CCC(=O)c2cc3c(s2)CCNC3)cc1OCC(=O)OCCCC [Example 2, Di-n-butyl [[4-[1,4-dioxo-4-(4,5,6,7-tetrahydrothieno[3,2-c]pyridin-2-yl)butan-1-yl]-1,2-phenylene]dioxy]diacetate hydrochloride]
- IC50: 2000 nM

SMILES: N=C(N)c1ccc(C(=O)CCC(=O)c2ccc(OCC(=O)O)cc2)cc1 [Example 6, 4-[4-(4-Amidinophenyl)-1,4-dioxobutan-1-yl]phenoxyacetic acid hydrochloride]
- IC50: < 100 nM
